Legend:
CDK7/Cyclin H/MNAT1 = CDK7/Cyclin H/MNAT1 (Homo sapiens, UniProt P50613); assay: Inhibition of CDK7/Cyclin H/MNAT1 kinase activity (ADP-Glo); format: biochemical; conditions: mean value from several measurements; read-out: IC50 CDK7/Cyclin H/MNAT
Procedure: (§1) Measurements were carried out in a 5 μl reaction volume using a 384-well plate (Corning Inc., order no. 4513). The analyzed substances were titrated from 50 μM in increments of 4 at 11 concentration points in a normal strength kinase buffer A (Thermo Fisher Scientific Inc, cat. no. PV3189) supplemented with DTT (Sigma, orde. no. 646563-10X.5ML) and prepared with water (Panreac, order no. 701074). Kinase was diluted in an analogous buffer, mixed with test compounds in plate wells and preincubated for 10 minutes at 25° C. Following incubation, a mixture of reaction substrate (CDKtide (SignalChem, order no. C06-58) or Histone H1 (SignalChem, order no. H10-54N) or PDKtide (SignalChem, order no. P10-58) and ATP (SignalChem, order no. V915B) prepared on a normal strength kinase buffer A was added. 1% solution of dimethyl sulfoxide (DMSO) (Sigma-Aldrich, order no. D2438) in the reaction volume was used as a negative control. The final concentrations of all reaction components are shown in Table 5. The plate was centrifuged at 400 rcf (Eppendorf, 5804 R) for 1 minute and incubated for 40-60 minutes at 25° C. The amount of ATP consumed in the kinase reaction was then measured using the ADP-Glo™ detection system. Luminescence signal was measured using Spark 20M tablet multifunction reader (Tecan Group Ltd, Switzerland). IC50 value was calculated using Magellan 7.2 (Tecan Group Ltd, Switzerland) by approximating experimental points by four-parameter model with the optimization by Levenberg-Marquardt:
(§2) [formula] • where A is the upper asymptote; D is the lower asymptote; C is IC50, half-maximal inhibitory concentration of kinase, nM; B is the curvature (slope).

CDK2/Cyclin A = CDK2/Cyclin A (Homo sapiens, UniProt P24941); assay: Inhibition of CDK2/Cyclin A kinase activity (ADP-Glo); format: biochemical; conditions: mean value from several measurements; read-out: IC50 CDK2/Cyclin A
Procedure: as §1, §2

CDK9/Cyclin K = CDK9/Cyclin K (Homo sapiens, UniProt P50750); assay: Inhibition of CDK9/Cyclin K kinase activity (ADP-Glo); format: biochemical; conditions: mean value from several measurements; read-out: IC50 CDK9/Cyclin K
Chain of CDK9/Cyclin K (P50750 whole entry): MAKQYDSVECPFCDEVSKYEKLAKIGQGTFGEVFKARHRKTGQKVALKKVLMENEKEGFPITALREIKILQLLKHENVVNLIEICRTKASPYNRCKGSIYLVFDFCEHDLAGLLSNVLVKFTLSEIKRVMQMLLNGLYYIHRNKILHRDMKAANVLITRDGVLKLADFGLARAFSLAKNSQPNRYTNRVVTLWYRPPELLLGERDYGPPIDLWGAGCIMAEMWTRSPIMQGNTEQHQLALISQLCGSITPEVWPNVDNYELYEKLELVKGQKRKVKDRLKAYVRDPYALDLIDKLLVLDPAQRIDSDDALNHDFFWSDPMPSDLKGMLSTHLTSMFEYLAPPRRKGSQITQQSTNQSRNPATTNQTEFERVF
Chain of CDK9/Cyclin K (O75909 whole entry partner): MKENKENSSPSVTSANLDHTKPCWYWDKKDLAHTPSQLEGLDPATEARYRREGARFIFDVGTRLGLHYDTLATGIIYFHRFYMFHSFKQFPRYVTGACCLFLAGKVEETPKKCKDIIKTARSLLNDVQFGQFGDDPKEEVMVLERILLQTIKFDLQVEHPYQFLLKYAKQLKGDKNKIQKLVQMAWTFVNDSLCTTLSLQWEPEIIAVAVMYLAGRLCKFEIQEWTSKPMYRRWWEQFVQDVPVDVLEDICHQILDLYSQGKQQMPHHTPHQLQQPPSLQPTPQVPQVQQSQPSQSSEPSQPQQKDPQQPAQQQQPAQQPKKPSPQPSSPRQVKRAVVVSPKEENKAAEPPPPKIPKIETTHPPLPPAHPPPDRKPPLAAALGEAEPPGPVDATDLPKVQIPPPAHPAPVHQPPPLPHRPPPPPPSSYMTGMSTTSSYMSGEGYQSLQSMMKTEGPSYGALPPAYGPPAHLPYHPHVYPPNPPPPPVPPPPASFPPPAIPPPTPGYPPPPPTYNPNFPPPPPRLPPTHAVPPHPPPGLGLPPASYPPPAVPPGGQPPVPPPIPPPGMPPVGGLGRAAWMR
Procedure: as §1, §2

[1] = tested on: MDA-MB-468 (triple negative breast cancer); assay: Antiproliferative assay on MDA-MB-468 cells (AlamarBlue, 96 h); format: cell-based; conditions: Homo sapiens, mean value from several measurements
Procedure: The antiproliferative activity of CDK7 inhibitors according to the present invention was evaluated in a cell test using continuous cell cultures: MDA-MB-468 (triple negative breast cancer, ATCC® HTB-132™) and NCl-H82 (small cell lung cancer, ATCC® HTB-175™) using a viable AlamarBlue dye (Thermo Fisher Scientific Inc, order no. DAL1100). The cells were grown in DMEM (PanEco, order no. C330π) and RPMI-1640 (PanEco, order no. C330π), respectively. The basal growth medium was enriched with L-glutamine at a concentration of 2 mM (PanEco, order no. Φ032) and 10% fetal bovine serum (Gibco, order no. 16140-071). The night before measurement, MDA-MB-468 adherent cells were detached from plastic with a solution of trypsin-EDTA (PanEco, order no. Π039π), the solution was then inactivated by a DMEM complete medium, centrifuged at 1000 RPM (Eppendorf, 5804 R), a suspension of cells was prepared in a DMEM complete medium, introduced into 96-well culture plates (Corning Inc, order no. 3599) at 8×10^3 cells in 100 μl of medium per well. The next day, test compounds were dissolved in DMSO and diluted with a DMEM complete medium to a final concentration ranging from 50 μM to 10 pM. Diluted compounds in a volume of 50 μl were introduced into the plate wells with cells in triplicates (the final concentration of DMSO was no more than 1%) and incubated at 37° C. in an incubator with 5% CO2 for 96 hours. NCl-H82 suspension cell line was prepared on the day of the analysis. 10×10^3 cells in 100 μl of an RPMI-1640 complete medium were added to each well of a 96-well plate. The procedure for sample dilution is as described above. Cells with test compounds were incubated at 37° C. in an incubator with 5% CO2 for 120 hours. Following incubation, […] of AlamarBlue reagent (Thermo Fisher Scientific Inc., order no. DAL1100) was added to the wells, the contents of the plates were stirred in an orbital shaker (Biosan, Latvia), then further incubated for 5.5-6 hours at 37° C. in an incubator with 5% CO2. The number of viable cells was detected using the Infinite M200Pro microplate spectrophotometer (Tecan Group Ltd, Switzerland) by way of measuring a fluorescent signal at an excitation wavelength (λEx) of 540 nm and an emission wavelength (λEm) of 590 nm.
IC50 value was calculated using the Magellan software (Tecan Group Ltd, Switzerland) by approximating experimental points by four-parameter model with the optimization by Levenberg-Marquardt: […]

[2] = General cytotoxicity on primary differentiated HepaRG cells (72 h); format: cell-based; conditions: human, general toxicity, mean value from several measurements
From the text: General cytotoxicity of CDK7 inhibitors according to the present invention was investigated using primary differentiated HepaRG cells (Biopredic Int, order no. HPR101). A week before the measurement, the cells were thawed and maintained in Basal hepatic cell medium (Biopredic Int, order no. MIL700079) supplemented with HepaRG maintenance/metabolism medium supplement with antibiotics (Biopredic Int, order no. ADD620C). The medium in vials with cells was changed every 2-3 days. The night before the test, the cells were plated in wells of 96-well plates (Corning Inc., order no. 3599) at 25×10^3 cells in 100 μl of medium per well. The next day, test compounds were introduced into plate wells with cells, untitrated at a concentration ranging from 200 μM to 0.2 nM, and incubated for 72 hours. Cell viability was assessed as described above.

[3] = Passive membrane permeability through PAMPA artificial membrane, pH 7.4; format: in vitro ADME; conditions: pH 7.4, 10 μmol, 20 hours at room temperature, mean of multiple measurements, read-out: PAMPA passive permeability Pe
Procedure: Passive membrane permeability of the compounds described in the present invention was determined using the PAMPA (parallel artificial membrane permeability assay) model at pH 7.4.
We used a 96-well plate (Corning® BioCoat® Pre-coated PAMPA Plate System, order no. 353015), composed of acceptor and donor parts with cell membrane-modeling PVDF filter pre-impregnated with a lecithin-phospholipid bilayer. The substance (at a concentration of 10 μmol) in a 0.01 M phosphate buffer with pH 7.4 was introduced into a donor well of the plate, and pure buffer was introduced into an acceptor well; afterwards, the both parts were combined and incubated for 20 hours at room temperature so that the compound was redistributed between the two wells and the membrane. Verapamil (USP, USA, order no. 1711202) and propranolol (MCE LLC, USA, cat. no. HY-B0573/CS-2680) were used as control compounds with high and medium permeability. Samples were analyzed by reversed-phase HPLC with UV detection (Agilent 1260 chromatograph with UV detector) by determining their peak areas in the donor and acceptor wells.
Permeability (Pe, cm/s) and retention factor (R, %) in the lipid bilayer were calculated using the formula:
[formula] [formula] • Co is donor-well concentration of the substance at the initial moment of time t (μM); • CA (t) is acceptor-well concentration of the substance at time t (μM); • Vd is donor-well volume (0.3 ml); • Va is acceptor-well volume (0.15 ml).
[formula] • A is filter area (0.3 cm^2); • t is incubation time (72000 s);

Chain of CDK7/Cyclin H/MNAT1 (P50613 whole entry): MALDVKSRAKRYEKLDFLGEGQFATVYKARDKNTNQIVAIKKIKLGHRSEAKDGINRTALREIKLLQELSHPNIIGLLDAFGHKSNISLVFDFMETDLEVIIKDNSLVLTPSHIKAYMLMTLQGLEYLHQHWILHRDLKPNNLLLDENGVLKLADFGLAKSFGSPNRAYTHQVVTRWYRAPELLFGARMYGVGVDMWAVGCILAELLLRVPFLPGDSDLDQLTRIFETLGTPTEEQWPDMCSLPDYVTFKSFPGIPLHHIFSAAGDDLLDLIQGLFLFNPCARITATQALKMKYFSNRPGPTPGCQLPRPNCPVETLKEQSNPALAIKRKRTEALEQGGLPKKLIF
Chain of CDK7/Cyclin H/MNAT1 (P51946 whole entry partner): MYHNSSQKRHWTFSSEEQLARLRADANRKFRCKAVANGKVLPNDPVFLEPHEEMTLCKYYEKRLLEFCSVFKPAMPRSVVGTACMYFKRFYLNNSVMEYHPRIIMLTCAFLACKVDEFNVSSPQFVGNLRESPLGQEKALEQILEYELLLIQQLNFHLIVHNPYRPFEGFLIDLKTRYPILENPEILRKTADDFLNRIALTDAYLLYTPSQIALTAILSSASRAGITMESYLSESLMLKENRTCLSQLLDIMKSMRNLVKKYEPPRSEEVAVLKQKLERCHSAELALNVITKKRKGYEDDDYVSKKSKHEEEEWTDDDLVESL
Chain of CDK7/Cyclin H/MNAT1 (P51948 whole entry partner): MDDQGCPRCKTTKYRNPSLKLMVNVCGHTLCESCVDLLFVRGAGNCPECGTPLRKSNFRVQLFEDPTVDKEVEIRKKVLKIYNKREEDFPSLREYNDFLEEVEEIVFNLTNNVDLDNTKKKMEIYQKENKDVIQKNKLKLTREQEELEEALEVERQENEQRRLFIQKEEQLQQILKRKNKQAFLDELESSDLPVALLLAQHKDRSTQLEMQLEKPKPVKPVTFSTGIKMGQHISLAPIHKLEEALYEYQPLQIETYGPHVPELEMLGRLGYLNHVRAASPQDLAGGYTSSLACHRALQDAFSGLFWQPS

Row | IC50 (CDK7/Cyclin H/MNAT1) [nM] | IC50 (CDK2/Cyclin A) [nM] | IC50 (CDK9/Cyclin K) [nM] | IC50 [1] [nM] | Papp at 20 h, 10 μmol [3] [×10⁻⁶ cm/s] | SMILES | CC50 at 72 h [2] [nM]
1 | 5 to 50 | > 200 | > 200 | – | < 1 | Cc1ccc(P(C)(C)=O)c(Nc2nc(N[C@H]3CCCNC3)ncc2C(F)(F)F)c1 [CDK7_903, N4-[2-(dimethylphos-phoryl)-5-methylphenyl]-N2-[(3S)-piperidin-3-yl]-5-(trifluoromethyl) pyrimidine-2,4-diamine] | –
2 | < 5 | > 200 | 5 to 50 | 100 to 1000 | < 1 | CP(C)(=O)c1ccccc1Nc1nc(N[C@H]2CCCNC2)ncc1C(F)(F)F [CDK7_735, N4-[2-(dimethylphos-phoryl)phenyl]-N2-[(3S)-piperidin-3-yl]-5-(trifluoromethyl) pyrimidine-2,4-diamine] | > 2000
3 | < 5 | > 200 | 5 to 50 | 100 to 1000 | < 1 | Cc1ccc(Nc2nc(N[C@H]3CCCNC3)ncc2C(F)(F)F)c(P(C)(C)=O)c1 [CDK7_904, N4-[2-(dimethylphos-phoryl)-4-methylphenyl]-N2-[(3S)-piperidin-3-yl]-5-(trifluoromethyl) pyrimidine-2,4-diamine] | > 2000
4 | – | – | – | – | < 1 | O=c1c2[nH]cc(-c3nc(N[C@H]4CCCNC4)ncc3C(F)(F)F)c2ccn1C1CCOCC1 [CDK7_1121] | > 2000

The remaining lines, values behind:

Row | SMILES | IC50 (CDK7/Cyclin H/MNAT1) [nM] | IC50 (CDK2/Cyclin A) [nM] | IC50 (CDK9/Cyclin K) [nM] | IC50 [1] [nM] | Papp at 20 h, 10 μmol [3] [×10⁻⁶ cm/s] | CC50 at 72 h [2] [nM]
5 | Nc1ccccc1Oc1nc(N[C@H]2CCCNC2)ncc1C(F)(F)F [CDK7_548, 4-(2-aminophenoxy)-N-[(3S)-piperidin-3-yl]-5-(trifluoromethyl) pyrimidin-2-amine] | 5 to 50 | > 200 | 5 to 50 | 10 to 100 | 1 to 5 | 500 to 2000
6 | CN1Cc2c(-c3nc(N[C@H]4CCCNC4)ncc3C(F)(F)F)c[nH]c2C1=O [CDK7_944, 5-methyl-3-(2-{[(3S)-piperidin-3-yl]amino}-5-(trifluoromethyl)pyrimidin-4-yl)-1H,4H,5H,6H-pyrrolo[2,3-c]pyrrol-6-one] | < 5 | > 200 | 5 to 50 | < 10 | < 1 | < 100
7 | O=C(NC1CC1)c1cc(-c2nc(N[C@H]3CCCNC3)ncc2C(F)(F)F)c[nH]1 [CDK7_951, N-cyclopropyl-4-(2-{[(3S)-piperidin-3-yl]amino}-5-(trifluoromethyl)pyrimidin-4-yl)-1H-pyrrole-2-carboxamide] | < 5 | > 200 | 5 to 50 | 10 to 100 | < 1 | 500 to 2000
8 | Cn1cc(NC(=O)c2cc(-c3nc(N[C@H]4CCCNC4)ncc3C(F)(F)F)c[nH]2)cn1 [CDK7_835, N-(1-methyl-1H-pyrazol-4-yl)-4-(2-{[(3S)-piperidin-3-yl]amino}-5-(trifluoromethyl)pyrimidin-4-yl)-1H-pyrrole-2-carboxamide] | 5 to 50 | > 200 | 5 to 50 | 100 to 1000 | < 1 | > 2000
9 | CN1CCC(=O)c2c(-c3nc(N[C@H]4CCCNC4)ncc3C(F)(F)F)c[nH]c2C1=O [CDK7_1021, 7-methyl-3-(2-{[(3S)-piperidin-3-yl]amino}-5-(trifluoromethyl)py-rimidin-4-yl)-1H,4H,5H,6H,7H, 8H-pyrrolo[2,3-c]azepine-4,8-dione] | 5 to 50 | 5 to 50 | > 200 | – | < 1 | > 2000
10 | O=C(c1ccccc1)c1cc(-c2nc(N[C@H]3CCCNC3)ncc2C(F)(F)F)c[nH]1 [CDK7_535, 4-(5-benzoyl-1H-pyrrol-3-yl)-N-[(3S)-piperidin-3-yl]-5-(trifluoromethyl) pyrimidin-2-amine] | 5 to 50 | > 200 | 50 to 200 | 100 to 1000 | – | > 2000
11 | CNC(=O)c1cc(-c2nc(N[C@H]3CCCNC3)ncc2C(F)(F)F)c[nH]1 [CDK7_846, N-methyl-4-(2-{[(3S)-piperidin-3-yl]amino}-5-(trifluoromethyl)pyrimidin-4-yl)-1H-pyrrole-2-carboxamide] | 5 to 50 | > 200 | 5 to 50 | 10 to 100 | – | 500 to 2000
12 | FC(F)(F)c1cnc(N[C@H]2CCCNC2)nc1-n1nnc2ccccc21 [CDK7_811, 4-(1H-1,2,3-benzotriazol-1-yl)-N-[(3S)-piperidin-3-yl]-5-(trifluoromethyl)py-rimidin-2-amine] | 5 to 50 | > 200 | – | 100 to 1000 | 5 to 10 | 500 to 2000
13 | O=C(Nc1nccs1)c1cc(-c2nc(N[C@H]3CCCNC3)ncc2C(F)(F)F)c[nH]1 [CDK7_834, 4-(2-{[(3S)-piperidin-3-yl]amino}-5-(trifluoromethyl)pyrimidin-4-yl)-1N-(1,3-thiazol-2-yl)-1H-pyrrole-2-carboxamide] | 5 to 50 | > 200 | 5 to 50 | 10 to 100 | – | 100 to 500

Source: patent publication US20260137698A1, “CYCLIN-DEPENDENT KINASE 7 INHIBITORS” (JOINT STOCK COMPANY «BIOCAD», priority 2022, published 2026)
